# Tested on: ex-vivo carotid artery segment of the mouse
# Assay: Ex-vivo carotid artery segment incubated with TEMPOL in vitro (EDD)
# Parameters: species or system C57BL/6 male mice
# Procedure: After 8 weeks, the mice were anesthetized with isoflurane and euthanized by bloodletting through cardiac puncture. The carotid artery was excised, the […] was inserted into the tip of a glass micropipette, and fixed with a nylon suture in a myograph chamber (DMTInc., Ann Arbor, Mich., USA) containing a buffered saline solution.
# The artery was pressurized to 50 mm Hg at 37° C. and equilibrated for 45 minutes before the experiment. After sub-polar contraction was performed using phenylephrine (2 μM), the diameter of the arterial lumen was increased to the degree of response of acetylcholine (Ach: 1×10^−91×10^−4 M), and the arterial tube treated with acetylcholine was used to determine […] dilation by vasodilation in response to NO donor sodium nitroprusside (SNP: 1×10^−101×10^−4 M). Calculated according to the following formula, the vasodilation response was recorded as the actual diameter due to the difference in the maximum carotid artery diameter of the young and old animals, expressed as a percentage of the maximum reaction. The formula is as follows:
# Dilation (%)=(Ds−Db)/(Dm−Db)×100%;
# wherein, Dm is the maximum diameter of the lumen under a pressure of 50 mm Hg pressure; Db is the steady-state lumen diameter after pre-contraction before the first addition of the drug; Ds is the steady-state lumen diameter recorded after the drug is added.
structure (smiles),measurement,setting,value
"CC1(C)CC(O)CC(C)(C)N1[O] [TEMPOL, 4-hydroxy-2,2,6,6-tetramethylpiperidin-1-yloxy]",EDD of the carotid artery after incubation in vitro,old control group,restored the EDD
same,EDD of the carotid artery after incubation in vitro,"other groups (young control, young and old experimental groups)",no effect

# From patent US20210322450A1, “APPLICATION OF COMPOSITION CONTAINING NICOTINAMIDE MONONUCLEOTIDE IN ANTI-AGING DRUGS/HEALTHCARE PRODUCTS” (HOBOOMLIFE BIO-TECHNOLOGY (SHENZHEN) CO., LTD., priority 2019, published 2021)
